Laboratory results: patent US20210353648A1, “GRAPIPRANT UNIT DOSAGE FORMS” (Arrys Therapeutics, Inc., priority 2018, published 2021)

Assays:
Assay type in all cases: in vivo, human
osteocalcin = experiment: Multiple ascending dose study: bone marker, percent change from baseline
Description: (§1) Each bone marker (serum bone-specific alkaline phosphatase and osteocalcin, urinary N-terminal telopeptide of type I collagen) is expressed as percentage change from baseline and analyzed. To assess influence of potential outliers on the bone marker data analyses, the following analysis can be conducted first. Potential outliers are identified as outside an interval consistent with a normal distribution defined as (median±3.5 standard deviations [SD]) for each dosing regimen and day combination. The SD is a pooled estimate across all dosing regimen and day combinations, each estimated by the scaled inter-quartile range 0.75 (Q75-Q25). Explicitly, for each dosing regimen and day combination, its SD denoted by SDi is estimated by its scaled inter-quartile range 0.75 (Q75-Q25). The overall SD is estimated as
(§2) Then, the (percent change from baseline) values are analyzed with a mixed effect model, with treatment (dosing regimen), day, and treatment-by-day interaction effects considered fixed and subject considered random. Baseline value is not included as a covariate. The model is fit separately to each group of cohorts (Cohorts 1-3 and 5). For Cohorts 1-3, days of interest are day 7 and day 14. For Cohort 5, days of interest are day 10 and day 17. For each group of cohorts, compound symmetry is assumed, and Restricted Maximum Likelihood Estimates are used. The least squares means (LSMeans) and 95% confidence intervals (CI) are obtained for each treatment and day combination. Within each treatment, LSMean percent changes from baseline at each post-dosing day (i.e., day 7 and day 14 for Cohorts 1-3, and day 10 and day 17 for Cohort 5) are obtained, along with their 95% CIs. In addition, for each post-dosing day, differences of the LSMean percent changes from baseline between active dosed regimen and placebo are obtained. The p-values comparing these differences from placebo are obtained using t-tests. No adjustments are made for multiple comparisons. […] If outliers are identified, additional mixed model analyses using the same mixed effect modeling as detailed above are to be conducted excluding the outliers. […] Individual percent-change-from-baseline profile versus time plots are plotted by treatment regimen.

[1] = system: serum bone-specific alkaline phosphatase; experiment: as above; details: for change from baseline in bone-specific alkaline phosphatase (least squares mean): 300 mg BID
Description: as §1, §2

[2] = Phase 1 multiple ascending dose study of grapiprant tablets: urine pharmacokinetics; details: for CLR/Fu: mean; for AE / AE/Dose: urine; for AE / AE/Dose / CL renal: mean (SD); for CL renal: human, urine and serum
Method: Urine pharmacokinetic parameters can be used to assess the amount of parent drug excreted unchanged in the urine. The urine pharmacokinetic parameters can be calculated under the assumption that the amount of grapiprant excreted unchanged in the urine over the dosing interval was at steady state on the last day of dosing for the 14 day and 17 day oral administration described herein. As used herein, the term “AE” refers to the amount of parent drug excreted from 0-12 hours post dose on day 14 or day 17, calculated by (Urine Grapiprant Concentration×Urine Volume). As used herein, the term “AE/Dose” refers to percent of Dose renally excreted unchanged on day 14 or day 17, calculated by (AE/Dose)×100. As used herein, the term “CLR” refers to renal clearance on day 14 or day 17, calculated by (AE/AUCτ). As used herein, the term “CLR/Fu” refers to renal clearance of unbound drug, calculated by (CLR/Fu), where the fraction of drug in the serum not bound to proteins (Fu) is determined from in vitro human serum protein binding data.
Serial urine samples for PK evaluations of grapiprant were collected on Day 14 for up to 48 hours postdose (Cohorts 1-3) or on Day 17 for up to 24 hours postdose (Cohorts 5 and 6).
Grapiprant was extracted from the urine by protein precipitation, and then analyzed by a validated LC/MS/MS method. The dynamic range of the assay was 1.00 to 600 μg/mL. The following parameters were calculated under the assumption that the amount of grapiprant excreted unchanged in the urine over the dosing interval was at steady state on the 14th day of dosing: amount of parent drug excreted (AE), percent of dose renally excreted unchanged (AE/dose), renal clearance (CLR), and renal clearance of unbound drug (CLR/Fu).

[3] = 50 mg, 14-day oral administration, healthy adults, post-dosing day 7
[4] = 50 mg, 14-day oral administration, healthy adults, post-dosing day 14
[5] = 150 mg, 14-day oral administration, healthy adults, post-dosing day 7
[6] = 150 mg, 14-day oral administration, healthy adults, post-dosing day 14
[7] = 250 mg, 17-day oral administration, elderly with minor renal impairment, post-dosing day 10
[8] = 250 mg, 17-day oral administration, elderly with minor renal impairment, post-dosing day 17
[9] = 300 mg, 14-day oral administration, healthy adults, post-dosing day 7
[10] = 300 mg, 14-day oral administration, healthy adults, post-dosing day 14
[11] = elderly subjects, 250 mg BID versus placebo
[12] = 50 mg BID (n = 8), after 14 days of multiple oral dosing, healthy adults
[13] = 150 mg BID (n = 9), after 14 days of multiple oral dosing, healthy adults
[14] = 250 mg BID (Elderly) (n = 14), after 14 days of multiple oral dosing (Day 17)
[15] = 300 mg BID (n = 9), after 14 days of multiple oral dosing, healthy adults

CCc1nc2c(C)nc(C)cc2n1-c1ccc(CCNC(=O)NS(=O)(=O)c2ccc(C)cc2)cc1 [Grapiprant, N-((4-(2-ethyl-4,6-dimethyl-1H-imidazo[4,5-c]pyridin-1-yl)phenethyl)carbamoyl)-4-methylbenzenesulfonamide]
change from baseline in osteocalcin (least squares mean) (osteocalcin; 50 mg BID, Day 7, healthy subjects, placebo 39.30%, p=0.023): 1.40%
LS Mean change in blood osteocalcin (osteocalcin; [3]): about −37.90%
LS Mean change in blood osteocalcin (osteocalcin; [4]): about −13.58%
LS Mean change in blood osteocalcin (osteocalcin; [5]): about −31.02%
LS Mean change in blood osteocalcin (osteocalcin; [6]): about −10.29%
LS Mean change in blood osteocalcin (osteocalcin; [7]): about −5.91%
LS Mean change in blood osteocalcin (osteocalcin; [8]): about −3.96%
change from baseline in osteocalcin (least squares mean) (osteocalcin; 300 mg BID, Day 14, healthy subjects, placebo 47.84%, p=0.045): 14.37%
LS Mean change in blood osteocalcin (osteocalcin; [9]): about −10.30%
LS Mean change in blood osteocalcin (osteocalcin; [10]): about −33.47%
bone marker difference between treatment groups (osteocalcin; [11]): no statistically significant differences
LS Mean Difference in bone-specific alkaline phosphatase [1, 3]: about −8.62%
LS Mean Difference in bone-specific alkaline phosphatase [1, 4]: about 7.16%
LS Mean Difference in bone-specific alkaline phosphatase [1, 5]: about 4.76%
LS Mean Difference in bone-specific alkaline phosphatase [1, 6]: about 1.23%
LS Mean Difference in bone-specific alkaline phosphatase [1, 7]: about −1.75%
LS Mean Difference in bone-specific alkaline phosphatase [1, 8]: about 3.88%
change from baseline in bone-specific alkaline phosphatase (least squares mean) ([1]; Day 7, healthy subjects, placebo 4.70%, p=0.020): 20.80%
change from baseline in bone-specific alkaline phosphatase (least squares mean) ([1]; Day 14, healthy subjects, placebo −5.36%, p=0.006): 14.36%
LS Mean Difference (of percent change from baseline) in bone-specific alkaline phosphatase [1, 9]: about 16.10%
LS Mean Difference in bone-specific alkaline phosphatase [1, 10]: about 19.72%
bone marker difference between treatment groups [1, 11]: no statistically significant differences
CLR/Fu [2, 12]: 6120 mL/min
AE [2, 12]: 10.6 (3.18) mg
AE/Dose [2, 12]: 21.2 (6.37) %
CLR/Fu [2, 13]: 6000 mL/min
AE [2, 13]: 33.3 (11.2) mg
AE/Dose [2, 13]: 22.2 (7.48) %
CLR/Fu [2, 14]: 2720 mL/min
AE [2, 14]: 57.9 (18.7) mg
AE/Dose [2, 14]: 23.2 (7.48) %
CLR/Fu [2, 15]: 4840 mL/min
AE [2, 15]: 82.4 (27.1) mg
AE/Dose [2, 15]: 27.5 (9.05) %
renal clearance corrected for protein binding compared with GFR ([2]; healthy and elderly subjects): much greater than the glomerular filtration rate
CL renal [2, 12]: 56.3 mL/min
CL renal [2, 13]: 55.2 mL/min
CL renal [2, 14]: 25 mL/min
CL renal [2, 15]: 44.5 mL/min
